One data set has as its system AsPC-1. The data set is described as follows: Inhibition of proliferation of KRAS G12D mutant tumor cell line AsPC-1 (CellTiter-Glo). The data set is classed as cell-based. As to the method:
1. Experimental objective: The inhibition activity of the example compounds on the proliferation of 5 KRAS G12D mutant cell lines SNU-1, HPAF-II, Panc0403, AsPC-1 and GP2D was determined. 2. Experimental instruments: • 2.1 Instruments: Microplate reader (BioTek Synergy H1); Pipette (Eppendorf & Rainin). • 2.2 Reagents: HPAF-II, PANC0403, AsPC-1 and GP2D were purchased from COBIOER BIOSCIENCES CO., LTD; SNU-1 was purchased from the cell bank of Chinese Academy of Sciences, Cell Titer-Glo was purchased from Promega, with a catalog number of G7573; RPMI 1640 was purchased from Gibco, with a catalog number of 22400089; DMEM was purchased from Gibco, with a catalog number of 11995065; FBS was purchased from Gibco, with a catalog number of 10091148; PBS was purchased from Gibco, with a catalog number of 10010023; trypsin was purchased from Gibco, with a catalog number of 25200056; cell culture plates were purchased from Corning Company, with a catalog number of 3610. 3. Experimental method: When SNU-1, HPAF-II, Panc0403, AsPC-1 or GP2D cells were cultured to the appropriate confluence, and the SNU-1, HPAF-II, Panc0403, AsPC-1 or GP2D cells were collected. The cells were adjusted to the appropriate cell density using complete culture medium, the cell suspension was plated onto a 96-well plate at 90 µL per well, and the plate was placed in the incubator at 37°C and 5% CO2 for adherent culture overnight. Solutions of the compound with different concentrations were formulated using DMSO and culture medium. A vehicle control was set up. The solutions of the compound were added to the 96-well plate at 10 µL per well, and the plate was placed in the incubator at 37°C and 5% CO2 for further culture for about 72 h. Then, CellTiter-Glo solution was added, and the obtained mixture was shaken and mixed evenly, incubated in the dark for 10 min, and read with a BioTek Synergy H1 microplate reader. 4. Experimental data processing method: The luminescence signal value was used to calculate the inhibition rate. Graphpad Prism software was used to fit the concentration and inhibition rate to a nonlinear regression curve, so as to obtain the IC50 value. 5. Experimental results: Table 2: Determination of the inhibition activity of the compounds on the proliferation of KRAS G12D mutant tumor cell line GP2D
A general note: In ATP-based viability assays light output follows the ATP content of the culture.

A short description of data set [1]: Pharmacokinetic determination in mice (IV and PO, plasma, LCMS/MS). The data set is classed as in vivo, Balb/c mice. The source says:
• 1. Study objective: Balb/c mice were used as test animals to study the pharmacokinetic behavior of the compounds in mice (plasma) after oral administration. • 2. Test scheme • 2.1 Test drugs: The example compounds of the present invention, made in house; • 2.2 Test animals: Balb/c mice, male, purchased from Shanghai Jiesijie Experimental Animal Co., Ltd., animal production license number (SCXK (Shanghai) 2013-0006 N0.311620400001794). • 2.3 Drug formulation: Formulation of a drug for oral administration: 10% Captisol in 50 mM citrate buffer pH 5.0.
(§1) Formulation of 50 mM citric acid: 4.8 g of citric acid was weighed into a 1000 ml glass bottle, ultrapure water was added to 300 ml, and the mixture was magnetically stirred until completely dissolved, additional ultrapure water was then added to 500 ml to formulate 50 mM citric acid.
(§2) Formulation of a solution containing 50 mM citric acid (10% Captisol, PH = 5): 50 g of Captisol powder was weighed and added to a 1000 ml glass bottle, 300 ml of 50 mM citric acid was added, and the mixture was magnetically stirred until completely dissolved, then additional citric acid was added to 500 ml, and the PH was adjusted to 5 using 10 M NaOH.
The example compounds were weighed and added to a 4 mL glass bottle separately, 2.4 mL of the solution was added and the mixture was subjected to ultrasound treatment for 10 min to obtain a colorless clear solution with a concentration of 3 mg/mL.
(§3) Formulation of a drug for intravenous administration: 5%DMSO+10%Solutol HS15+85%PBS.
(§4) The example compounds were weighed, and 5% DMSO was added according to the total administration volume; the mixture was vortexed and sonicated for 2 min to ensure complete dissolution; then, 10% Solutol HS15 was added, and the mixture was vortexed and sonicated for 2 min to achieve complete dissolution; finally, 85% PBS was added, and the mixture was vortexed and sonicated for 5 min; the obtained mixture was filtered through a 0.22 um membrane to obtain a colorless, transparent, and clear solution with a concentration of 0.2 mg/mL.
3 Balb/c mice, male; After overnight fasting, the animals were administered orally (PO) at a dose of 30 mg/kg with an administration volume of 10 mL/kg.
3 Balb/C mice, male; After overnight fasting, the animals were administered intravenously (IV) at a dose of 1 mg/kg with an administration volume of 5 mL/kg.
0.04 mL of blood was collected from the orbit before administration and at 0.25 h, 0.5 h, 1 h, 2 h, 4 h, 6 h, 8 h, and 24 h after administration and placed in an EDTA-2K test tube, and the test tube was centrifuged at 6000 rpm for 6 min at 4°C to separate the plasma, which was stored at -20°C; the animals were fed 4 h after administration.
The final determination results obtained by applying the LCMS/MS method are shown in the table below: Table 6: Pharmacokinetic parameters of the compounds administered intravenously in mice

Another data set deals with GP2D. The data set is described as follows: Inhibition of proliferation of KRAS G12D mutant tumor cell line GP2D (CellTiter-Glo). Particulars: read-out: GP2D IC50.
Data set [2] is described as follows: Pharmacokinetic determination in rats (IV and PO, plasma, LCMS/MS). The data set is classed as in vivo, SD rats. The conditions noted are these: male SD rats. As to the method: SD rats were used as test animals to study the pharmacokinetic behavior of the example compounds in rats (plasma) after oral administration.
(§5) The example compounds of the present invention, made in house.
3 SD rats per group, male. Shanghai Jiesijie Experimental Animal Co., Ltd., animal production license number (SCXK (Shanghai) 2013-0006 N0.311620400001794).
Formulation of a drug for oral administration: 10% Captisol in 50 mM citrate buffer pH 5.0.
as §1, §2
The example compounds were weighed and dissolved in the solution and the mixture was shaken well and subjected to ultrasound treatment for 15 min to obtain a colorless clear solution with a concentration of 3 mg/mL.
as §3, §4
3 SD rats per group, male; After overnight fasting, the animals were administered orally (PO) at a dose of 30 mg/kg with an administration volume of 10 mL/kg.
3 SD rats per group, male; After overnight fasting, the animals were administered intravenously (IV) at a dose of 1 mg/kg with an administration volume of 5 mL/kg.
0.2 mL of blood was collected from the jugular vein before administration and at 0.25 h, 0.5 h, 1.0 h, 2.0 h, 4.0 h, 6.0 h, 8.0 h, and 24.0 h after administration and placed in an EDTA-2K test tube, and the test tube was centrifuged at 6000 rpm for 6 min at 4°C to separate the plasma, which was stored at -20°C. the animals were fed 4 h after administration.
The final determination results obtained by applying the LCMS/MS method are shown in the table below: Table 8: Pharmacokinetic parameters of the compounds administered intravenously in rats

Data set [3] deals with human colorectal cancer cell line (GP2D). The data set is described as follows: Anti-tumor efficacy in mouse transplanted tumor model of human colorectal cancer cell line (GP2D). Particulars: 100mpk, PO*BID. The data set is classed as in vivo, mice (BALB/c nude).
Source text: 8-10 week old female conventional immunodeficient mice (BALB/c nude) with a body weight of 18 g-22 g were used as experimental animals, and a transplanted tumor model of human colorectal cancer cell line (GP2D) was used to conduct in vivo efficacy experiments to test the anti-tumor results of the example compounds after gavage administration.
as §5
A certain amount of the example compound was weighed, and an appropriate amount of 10% vehicle (Solutol HS15) was added. The mixture was stirred on a magnetic stirrer for 0.5 h to formulate a homogeneous suspension at the desired concentration.
The human colorectal cancer cell line (GP2D) was derived from COBIOER BIOSCIENCES CO., LTD, cultured on DMEM medium (Gibco, 11995-065) supplemented with 10% fetal calf serum (Gibco, 10091-148) and 1% penicillin/streptomycin (Gibco, 15140-122) and observed under a microscope (Thermo Fisher, 311). The cells were routinely passaged when the cells reached 80%-90% confluence in the culture flask. The passaged cells were cultured in a 37°C, 5% CO2 incubator (Thermo Fisher, 311).
Under aseptic conditions, human colorectal cancer cells (GP2D) in the logarithmic growth phase were harvested using 0.25% trypsin-EDTA (Gibco, 25200-056), washed and resuspended with phosphate buffer. The cell suspension was mixed with Matrigel (Corning, 356234) at a 1 : 1 ratio (v/v) and implanted subcutaneously into the right anterior dorsal region of immunodeficient mice (BALB/c nude). Each mouse was inoculated with 5*10^6 cells in a volume of 100 microliters (µL). After inoculation, when the tumor volume reached 100-200 mm^3, the mice would be evenly randomized into 5 groups based on the tumor size, with 5 mice per group, for in vivo efficacy experiments. The positive control group was the compound MRTX-1133, and the negative control group was the vehicle group.
Mode of administration: The positive control group was intraperitoneally injected, and the example compounds were administered orally.
Twice a week, the long and short diameters of the tumor were measured using a vernier caliper, and the tumor volume (mm^3) was calculated using the formula: V = 0.5*D*d*d, where D and d are the long and short diameters of the tumor, respectively. The anti-tumor efficacy was determined by dividing the average increase in tumor volume of compound-treated animals by the average increase in tumor volume of untreated animals. The calculation formula for tumor inhibition rate was: When there is no tumor regression, TGI(%) = 100-[(Vt-V0) administration group/(Vt-V0) vehicle control group]*100%. When tumor regression occurs, TGI(%) = [1-(V1-V0) administration group/V0 vehicle control group]* 100%. All animals were euthanized after the experiment.

Where [4] appears, read: PO, 30 mg/kg, male Balb/c mice, overnight fasting, plasma.
Where [5] appears, read: proliferation, about 72 h, CellTiter-Glo.
Setting [6] is: IV, 1 mg/kg, overnight fasting, plasma.
[7] abbreviates: PO, 30 mg/kg, overnight fasting, plasma.
[8] abbreviates: Balb/c mice, intravenously (IV), 1 mg/kg, plasma.

The source of these data is patent publication EP4635958A1, “PYRIMIDINE-CONTAINING POLYCYCLIC DERIVATIVE INHIBITOR, AND PREPARATION METHOD THEREFOR AND USE THEREOF” (Shanghai Hansoh Biomedical Co., Ltd., priority 2022, dated 2024).

pIC50: −log10 of the molar value. Where two headings read alike, the source gives them in different places.

As a reminder, the pIC50 is −log10 of the IC50, conventionally taken in molar units. By Cmax is commonly meant the highest concentration seen after dosing. As usually defined, the Tmax is the time at which the peak concentration occurs. Take “4-((5S,5aS,6R,9S)-12-((1-((((R)-4-(difluoromethylene)-2-methylpiperidin-1-yl)methyl)cyclopropyl)methoxy)-1-fluoro-5-methyl-5a,6,7,8,9,10-hexahydro-5H-4-oxa-3,10a,11,13,14-pentaaza-6,9-methylnaphtho[1,8-ab]hept-2-yl)-5-ethynyl-6-fluoronaphthalen-2-ol [Example 89]”: the pIC50 with AsPC-1 (about 72 h) is 8.05. Moreover, in data set [1] (setting [4]), the “AUC0-∞” value stood at 1513 ng·h/mL, the Cmax was 259 ng/mL, the T1/2 worked out at 7.7 h and the Tmax was found to be 1.0 h. Further, the pIC50 with GP2D (setting [5]) was 9.05.
As to “4-((5S,5aS,6R,9S)-12-((1-((((R)-4-(difluoromethylene)-2-methylpiperidin-1-yl)methyl)cyclopropyl)methoxy)-1-fluoro-5-methyl-5a,6,7,8,9,10-hexahydro-5H-4-oxa-3,10a,11,13,14-pentaaza-6,9-methylnaphtho[1,8-ab]hept-2-yl)-5-ethynyl-6-fluoronaphthalen-2-ol [Example 91]”, in data set [2] (setting [6]), the “AUCo-∞” value turned out to be 660 ng·h/mL, the C0 came to 995 ng/mL, the CL came to 25.3 mL/min/kg and the T1/2 was 11.9 h. Further, in data set [2] (PO 30 mg/kg vs IV 1 mg/kg), the F was 9.7%. In data set [2] (setting [7]), the “AUCo-∞” value is 1925 ng·h/mL, the Cmax was found to be 251 ng/mL, the T1/2 turned out to be 4.8 h and the Tmax came to 6.0 h. The pIC50 with AsPC-1 (about 72 h) is 8.24. In addition, in data set [1] (setting [8]), the “AUCo-∞” value came to 366 ng·h/mL, the C0 came to 662 ng/mL, the CL is reported as 45.6 mL/min/kg and the T1/2 stood at 9.3 h. For the same compound, the F in data set [1] (PO 30 mg/kg vs IV 1 mg/kg, male Balb/c mice) was determined as 16.6%. Further, in data set [1] (setting [4]), the “AUC0-∞” value turned out to be 1818 ng·h/mL, the Cmax is 295 ng/mL, the T1/2 was found to be 5.7 h and the Tmax turned out to be 2.0 h. For the same compound, the pIC50 with GP2D (setting [5]) is 9.55.
For the compound `C#Cc1c(F)ccc2cc(O)cc(-c3nc4c5c(nc(OCC6(CN7CCC(=CF)CC7C)CC6)nc5c3F)N3CC5CCC(N5)C3C(C)O4)c12` (centres unmarked) [Example 285], in data set [3] (Day 0), the “Tumor volume (mm^3, Mean ± SD) Day 0” value was 167 mm^3. For the same compound, in data set [3] (Day 14), the “TGI(%) Day 14” value amounted to 148.04%; the “Tumor volume (mm^3, Mean ± SD) Day 14” value is listed as 87 mm^3; the “ΔT/ΔC(%) Day 14” value worked out at 10.99%. The AUC(0-inf) in data set [2] (rat, in vivo, PO, 30 mg/kg, overnight fasting, plasma, read-out: AUCo-∞) was 598 ng·h/mL. Moreover, the Cmax in data set [2] (rat, in vivo, PO, 30 mg/kg, overnight fasting, plasma, read-out: Cmax) amounted to 73 ng/mL. Besides, in data set [2] (rat, in vivo, PO, 30 mg/kg, overnight fasting, plasma, read-out: Tmax), the Tmax was determined as 2 h. Further, the pIC50 in the data set on AsPC-1 (Homo sapiens, ASPC1, about 72 h) is 8.32. Besides, in the data set with GP2D (Homo sapiens, GP2d, 72 h), the pIC50 is 9.80.
